Laboratory results published in patent US20240382564A1, “Methods and Compositions for Treating Muscular Dystrophy and Memory Impairment” (Allysta Pharmaceuticals, Inc., priority 2023, published 2024).
Where no end group is shown, it is not given here. [ ]: non-standard residue; d: D form. Nva = CCC[C@H](N)C(=O)O

Tests used:
Format in all cases: in vivo, mouse
[1] = test system: D2.mdx mice; experiment: Muscle cytokine mRNA by quantitative PCR
Description: (§1) D2.mdx mice were treated with ALY688 at two different dosages; high dose (HD; 15 mg/kg body weight/day) or low dose (LD; 3 mg/kg body weight/day) dissolved in saline. A separate group of mice were treated with saline alone (VEH, vehicle). Treatment was provided via subscapular subcutaneous injections from 7 days of age to 28-30 days. […] At 28-30 days of age, mice were anaesthetized with isoflurane vaporized in medical air (21% oxygen) at a 2 L/min flow rate. Due to tissue limitations in limb muscle, certain measures were performed separately in tibialis anterior and quadriceps across several phases of breeding. Following the treatment protocol, in situ quadriceps force assessments were then performed in one limb followed by removal of the quadriceps from the other limb for mitochondrial assessments, diaphragm for in vitro force assessments and finally other tissues for further processing as described below. Muscle and visceral organs weights were normalized to tibia length. Tissue collected from the first phase were utilized in force, histological, mitochondrial measures (respiration, mH2O2 and calcium retention capacity) and western analyses (diaphragm and quadriceps only). A second phase was then collected and utilized for cytokine profiling, qPCR analyses and additional westerns (TA only). Serum was collected from both phase 1 and 2 and utilized for serum CK analysis. All animals were utilized in in vivo functional assays (grip strength, cage hang time and voluntary wheel running).
Samples were lysed using TRIzol reagent and RNA was separated to aqueous phase using chloroform. The aqueous layer containing RNA was then mixed with isopropanol and loaded to Aurum Total RNA Mini Kit columns (Bio-Rad, Mississauga, ON, Canada). Total RNA was then extracted according to the manufacturer's instructions and concentration was assessed on the nanodrop attachment for the Varioskan LUX Multimode Microplate reader (Thermo Scientific). Reverse transcription of RNA into cDNA was performed by M-MLV reverse transcriptase and oligo (dT) primers (Qiagen). cDNA was then amplified in a CFX384 Touch Real-Time PCR Detection Systems (Bio-Rad) with a SYBR Green master mix and specific primers. Standard curves were created by plotting log DNA concentrations against Ct values from a 1:5 serial dilutions with CFX Manager Software. Gene expression was normalized to a Rplp0 control, and relative differences were determined using the ΔΔCt method Values are presented as fold increases relative to WT group.

[2] = test system: D2.mdx mice; experiment: Muscle cytokine protein profiling (LEGENDplex); settings: HD
Description: as §1
Tibialis anterior and diaphragm samples were homogenized in lysis buffer containing (in mM) (20 Tris/HCl, 150 NaCl, 1 EDTA, 1 EGTA, 1% Triton X-100, 2.5 Na4O7P2, 1 Na3VO4, pH 7.0) supplemented with protease (Roche) and phosphatase inhibitors (Sigma). Samples were diluted two-fold in the assay buffer before loading to the plates with beads. According to the manufacturer's instructions, levels of TGF-β, TNF-α, IL-1β, IL-6 and IL-10 in the homogenates were measured using LEGENDplex™ Mouse Custom Panel. Assay was performed in the Attune NxT flow cytometer (Thermo Fisher). The FCS files generated on the flow cytometer were analyzed using the LEGENDplex™ cloud-based analysis software.

[3] = test system: D2.mdx mice; experiment: Hippocampal cytokine mRNA by quantitative PCR; settings: 15 mg/kg daily
Description: Male D2.mdx mice originated from a colony maintained at York University (Toronto, Canada) and sourced from Jackson Laboratories (Stock Number 013141, Bar Harbor, United States). Mice were treated daily from days 7 to 28 of age with ALY688 at 15 mg/kg b.w. (D2.mdx-ALY688) or saline control (D2.mdx-VEH). This age was chosen given it captures an early stage of disease progression in cardiac and skeletal muscle. Mice were sacrificed 20-24 hr after the last dose. Breeding of wildtype mice was unsuccessful. […]
Total RNA was isolated from hippocampus using the Aurum Total RNA Mini Kit (Bio-Rad; Mississauga, ON, Canada) according to manufacturer's instructions, and reverse transcribed into cDNA by M-MLV reverse transcriptase and oligo (dT) primers (Qiagen). cDNA was then amplified in a CFX384 Touch Real-Time PCR Detection Systems (Bio-Rad) with a SYBR Green master mix and specific primers. Gene expression was normalized to a Rplp0 control and relative differences were determined using the ΔΔCt method (Livak, K. J., & Schmittgen, T. D. (2001). Analysis of relative gene expression data using real-time quantitative PCR and the 2(-Delta Delta C(T)) Method. Methods, 25 (4), 402-408. doi: 10.1006/meth.2001.1262), normalized to D2A expression. […]

For [dN]IP[Nva]LY[dS]FA[dS]-NH2 [ALY688], the “IL-10 mRNA content” value ([1]; diaphragm, HD) was “not different between groups”, the “TGF-β mRNA contents” value ([1]; diaphragm, HD) was “unchanged in all groups” and the “TNF-α mRNA content” value ([1]; diaphragm, HD) was “not different between groups”. For the same substance, the “IL-1β mRNA” value ([1]; diaphragm, HD vs VEH) was “not affected by the drug”, the “IL-6 mRNA content” value ([1]; diaphragm, HD, increase in VEH attenuated) was 51.8 % increase vs WT and the “attenuation of TNF-α mRNA compared to VEH” value ([1]; tibialis anterior, HD) was 41.4%. For the same substance, the IL-6 protein content ([2]; diaphragm) was 69.1 % increase vs VEH, the IL-10 protein content ([2]; diaphragm) was “not different between groups” and the TGF-β protein content ([2]; diaphragm) was 20.3 % increase vs VEH. For the same substance, the TNF-α protein content ([2]; diaphragm) was “not different between groups”, the “prevention of the increase in TNF-α protein content” value ([2]; tibialis anterior, VEH 40.6 pg/ml, not detectable in wildtype) was 83.9% and the “hippocampal mRNA of IL-6, TNF-α or IL-10” value [3] was “No significant changes”.
